Literature values in patent US20240252632A1, “METHODS OF TREATING LUNG CANCER WITH A PD-1 AXIS BINDING ANTAGONIST, AN ANTIMETABOLITE, AND A PLATINUM AGENT” (Genentech, Inc., priority 2018, published 2024).

Q: Which “solubility in ethanol, acetone, and dimethylacetamide” value (ethanol, acetone, dimethylacetamide) does the source give for `[NH3+][Pt-2]1([NH3+])[O]C(=O)C2(CCC2)C(=O)[O]1` [Carboplatin, platinum, diammine[1,1-cyclobutanedicarboxylato(2-)-O,O′]—, (SP-4-2)] here?
A: virtually insoluble

Q: And the solubility in water (water)?
A: approximately 14 mg/mL
